PubChem BioAssay (NCI)
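Dose response: 5 concentrations. Exposure: 48 h. Format: 96-well plates. Endpoint: linear interpolation; highest concentration if not reached. The concentration for full growth arrest is given as TGI.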

Experiments:
Experiment in all cases: growth of human tumour cells (NCI), 48 h
LOX IMVI melanoma = tested on: LOX IMVI melanoma
HL-60(TB) leukemia = tested on: HL-60(TB) leukemia
NCI-H226 lung = tested on: NCI-H226 lung
SF-295 CNS = tested on: SF-295 CNS
OVCAR-4 ovarian = tested on: OVCAR-4 ovarian
HS 578T breast = tested on: HS 578T breast
SK-MEL-28 melanoma = tested on: SK-MEL-28 melanoma
OVCAR-5 ovarian = tested on: OVCAR-5 ovarian
SK-MEL-5 melanoma = tested on: SK-MEL-5 melanoma
COLO 205 colon = tested on: COLO 205 colon
UACC-62 melanoma = tested on: UACC-62 melanoma
NCI-H522 lung = tested on: NCI-H522 lung
MDA-MB-435 = tested on: MDA-MB-435
A498 renal = tested on: A498 renal
HCC-2998 colon = tested on: HCC-2998 colon
RXF 393 renal = tested on: RXF 393 renal
EKVX NSCLC = tested on: EKVX NSCLC
SK-MEL-2 melanoma = tested on: SK-MEL-2 melanoma
BT-549 breast = tested on: BT-549 breast

SMILES	TGI (LOX IMVI melanoma) [µM]	TGI (HL-60(TB) leukemia) [µM]	TGI (NCI-H226 lung) [µM]	TGI (SF-295 CNS) [µM]	TGI (OVCAR-4 ovarian) [µM]	TGI (HS 578T breast) [µM]	TGI (SK-MEL-28 melanoma) [µM]	TGI (OVCAR-5 ovarian) [µM]	TGI (SK-MEL-5 melanoma) [µM]	TGI (COLO 205 colon) [µM]	TGI (UACC-62 melanoma) [µM]	TGI (NCI-H522 lung) [µM]	TGI (MDA-MB-435) [µM]	TGI (A498 renal) [µM]	TGI (HCC-2998 colon) [µM]	TGI (RXF 393 renal) [µM]	TGI (EKVX NSCLC) [µM]	TGI (SK-MEL-2 melanoma) [µM]	TGI (BT-549 breast) [µM]
O=C(CC(C(=O)c1ccsc1)c1ccccc1)c1ccccc1 (stereo not given)	> 100	23	> 100	> 100	75.9	> 100	> 100	> 100	> 100	> 100	> 100	> 100	> 100	> 100	> 100	> 100	> 100	–	–
CC1CN=C(N(C(=O)Nc2ccc(Cl)c(Cl)c2)c2ccccc2)S1 (stereo not given)	> 100	–	–	> 100	> 100	> 100	> 100	> 100	50.8	> 100	–	–	–	> 100	> 100	–	> 100	97.1	–
Cc1ncc([N+](=O)[O-])n1CCNCCCCn1ccnc1[N+](=O)[O-]	> 100	> 100	> 100	> 100	> 100	> 100	> 100	> 100	> 100	> 100	> 100	> 100	> 100	> 100	–	> 100	> 100	> 100	> 100
CCOC(=O)Cc1ccc(Nc2nc3ccccc3nc2C(=O)OCC)cc1	> 100	> 100	> 100	> 100	> 100	88.9	> 100	> 100	> 100	> 100	> 100	> 100	> 100	86.7	–	74.4	> 100	> 100	> 100
